# Reference: patent US20220380338A1, “CYCLOALKYL 3-OXOPIPERAZINE CARBOXAMIDES AND CYCLOHETEROALKYL 3-OXOPIPERAZINE CARBOXAMIDES AS NAV1.8 INHIBITORS” (Merck Sharp & Dohme LLC, priority 2021, published 2022)
# pIC50: −log10 of the molar value.
# Biological target: T1, human NaV1.8 (Homo sapiens, UniProt Q9Y5Y9)
# T1 construct: expressed in transfected cells
# Assay: Nav1.8 Qube® Assay (automated 384-well patch-clamp, inhibition of sodium current)
# Format: cell-based
# Settings: human NaV1.8 channels stably expressed in HEK 293 cells, room temperature
# Method in brief: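 Whole-cell voltage clamp at room temperature in HEK293 cells stably expressing NaV1.8; from −90 mV hold, 10 s 1 Hz train of 20 ms pulses to 10 mV with 980 ms repolarization to −67 mV. Peak currents of 1st and 10th pulses give resting and inactivated-state IC50s, Hill fit.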
# T1 sequence (Q9Y5Y9 whole entry): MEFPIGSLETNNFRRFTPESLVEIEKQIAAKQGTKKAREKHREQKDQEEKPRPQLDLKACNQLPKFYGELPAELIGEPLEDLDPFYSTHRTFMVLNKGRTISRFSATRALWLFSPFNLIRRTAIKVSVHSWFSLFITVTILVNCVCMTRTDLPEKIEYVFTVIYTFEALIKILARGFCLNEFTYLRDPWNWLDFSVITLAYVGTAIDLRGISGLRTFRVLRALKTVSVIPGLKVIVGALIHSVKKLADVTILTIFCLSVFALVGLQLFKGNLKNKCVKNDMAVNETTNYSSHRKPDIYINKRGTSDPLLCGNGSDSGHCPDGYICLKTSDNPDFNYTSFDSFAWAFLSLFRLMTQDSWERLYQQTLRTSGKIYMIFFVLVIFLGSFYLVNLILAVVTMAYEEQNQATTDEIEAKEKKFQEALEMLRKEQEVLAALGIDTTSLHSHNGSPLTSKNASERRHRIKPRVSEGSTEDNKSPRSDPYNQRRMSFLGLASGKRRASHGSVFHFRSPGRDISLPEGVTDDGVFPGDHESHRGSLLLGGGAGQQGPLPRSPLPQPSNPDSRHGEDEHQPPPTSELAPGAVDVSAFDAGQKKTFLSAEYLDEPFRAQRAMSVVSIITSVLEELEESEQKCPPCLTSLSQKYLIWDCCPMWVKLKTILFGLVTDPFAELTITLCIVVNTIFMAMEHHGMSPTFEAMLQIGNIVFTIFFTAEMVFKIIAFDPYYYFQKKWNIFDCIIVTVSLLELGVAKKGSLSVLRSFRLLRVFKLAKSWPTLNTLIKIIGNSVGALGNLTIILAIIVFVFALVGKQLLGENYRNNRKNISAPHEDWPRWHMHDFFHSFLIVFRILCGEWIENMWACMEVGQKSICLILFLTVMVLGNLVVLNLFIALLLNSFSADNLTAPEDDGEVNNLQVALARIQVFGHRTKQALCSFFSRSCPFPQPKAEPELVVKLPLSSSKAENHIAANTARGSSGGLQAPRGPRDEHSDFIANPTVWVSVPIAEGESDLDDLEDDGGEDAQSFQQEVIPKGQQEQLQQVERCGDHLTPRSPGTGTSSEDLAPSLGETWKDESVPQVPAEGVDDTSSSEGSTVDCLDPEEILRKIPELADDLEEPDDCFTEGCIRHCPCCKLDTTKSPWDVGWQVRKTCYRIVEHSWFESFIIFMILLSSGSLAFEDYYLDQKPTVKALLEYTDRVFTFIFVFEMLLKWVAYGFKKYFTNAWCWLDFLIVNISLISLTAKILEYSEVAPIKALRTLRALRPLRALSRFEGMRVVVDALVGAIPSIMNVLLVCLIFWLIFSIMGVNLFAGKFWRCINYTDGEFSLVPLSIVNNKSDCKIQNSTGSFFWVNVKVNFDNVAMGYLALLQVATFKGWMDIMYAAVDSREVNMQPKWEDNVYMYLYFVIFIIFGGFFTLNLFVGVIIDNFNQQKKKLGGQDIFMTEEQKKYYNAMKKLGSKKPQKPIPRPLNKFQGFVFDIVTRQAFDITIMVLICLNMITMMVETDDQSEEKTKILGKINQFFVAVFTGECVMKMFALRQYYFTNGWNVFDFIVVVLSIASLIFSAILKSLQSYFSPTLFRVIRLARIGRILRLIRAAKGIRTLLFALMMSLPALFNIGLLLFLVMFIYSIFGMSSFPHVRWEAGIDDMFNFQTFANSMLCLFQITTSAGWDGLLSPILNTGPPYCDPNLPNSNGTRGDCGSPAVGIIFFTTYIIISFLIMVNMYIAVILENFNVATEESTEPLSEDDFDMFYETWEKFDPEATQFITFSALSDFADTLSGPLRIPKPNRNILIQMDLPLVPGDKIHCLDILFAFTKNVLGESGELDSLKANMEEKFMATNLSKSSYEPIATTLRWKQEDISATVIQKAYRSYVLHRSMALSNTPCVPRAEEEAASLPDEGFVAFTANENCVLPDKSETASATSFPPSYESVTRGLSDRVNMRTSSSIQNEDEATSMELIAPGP
row,pIC50,Compound
1,7.15,"C[C@@H]1C(=O)NCCN1C(=O)NC(c1ccc(F)c(Cl)c1F)C1CC(C)(C)C1 (single isomer, unassigned) [Example 31B, (2R)-N-((S or R)-(3-chloro-2,4-difluoro-phenyl)(3,3-dimethyl-cyclobutyl)methyl)-2-methyl-3-oxopiperazine-1-carboxamide]"
2,6.87,"C[C@@H]1C(=O)NCCN1C(=O)NC(c1ccc(C(F)(F)F)nc1)C1CC(C)(C)C1 (single isomer, unassigned) [Example 33A, (2R)-N-((R or S)-(3,3-dimethylcyclobutyl)(6-(trifluoromethyl)pyridin-3-yl)methyl)-2-methyl-3-oxopiperazine-1-carboxamide]"
3,5.45,"C[C@@H]1C(=O)NCCN1C(=O)NC(c1ccc(C(F)(F)F)nc1)C1CC(C)(C)C1 (single isomer, unassigned) [Example 33B, (2R)-N-((S or R)-(3,3-dimethylcyclobutyl)(6-(trifluoromethyl)pyridin-3-yl)methyl)-2-methyl-3-oxopiperazine-1-carboxamide]"
4,6.22,"O=C1CN(C(=O)NC(c2ccc(F)c(Cl)c2)C23CC(C(F)(F)F)(C2)C3)CCN1 (single isomer, unassigned) [Example 34A, N-((R or S)-(3-chloro-4-fluorophenyl)(3-(trifluoromethyl)bicyclo [1.1.1]pentan-1-yl)methyl)-3-oxopiperazine-1-carboxamide]"
5,7.33,"O=C1CN(C(=O)NC(c2ccc(F)c(Cl)c2)C23CC(C(F)(F)F)(C2)C3)CCN1 (single isomer, unassigned) [Example 34B, N-((S or R)-(3-chloro-4-fluorophenyl)(3-(trifluoromethyl)bicyclo [1.1.1]pentan-1-yl)methyl)-3-oxopiperazine-1-carboxamide]"
6,8.22,"C[C@@H]1C(=O)NCCN1C(=O)NC(c1ccc(F)c(Cl)c1)C12CC(C(F)(F)F)(C1)C2 (single isomer, unassigned) [Example 35A, (2R)-N-((R or S)-(3-chloro-4-fluoro-phenyl)(3-(trifluoro-methyl)bicyclo[1.1.1]pen-tan-1-yl)methyl)-2-methyl-3-oxopiperazine-1-carboxamide]"
7,7.31,"C[C@@H]1C(=O)NCCN1C(=O)NC(c1ccc(F)c(Cl)c1)C12CC(C(F)(F)F)(C1)C2 (single isomer, unassigned) [Example 35B, (2R)-N-((S or R)-(3-chloro-4-fluoro-phenyl)(3-(trifluoro-methyl)bicyclo[1.1.1]pen-tan-1-yl)methyl)-2-methyl-3-oxopiperazine-1-carboxamide]"
8,7.25,"Cc1cc(C(NC(=O)N2CCNC(=O)[C@H]2C)C2CCC(C(F)(F)F)CC2)ccc1F (single isomer, unassigned) [Example 36A]"
9,7.13,"Cc1cc(C(NC(=O)N2CCNC(=O)[C@H]2C)C2CCC(C(F)(F)F)CC2)ccc1F (single isomer, unassigned) [Example 36B]"
10,7.24,"Cc1cc(C(NC(=O)N2CCNC(=O)[C@H]2C)C2CCC(C(F)(F)F)CC2)ccc1F (single isomer, unassigned) [Example 36C]"
11,8.40,"Cc1cc(C(NC(=O)N2CCNC(=O)[C@H]2C)C2CCC(C(F)(F)F)CC2)ccc1F (single isomer, unassigned) [Example 36D]"
12,6.96,"C[C@@H]1C(=O)NCCN1C(=O)NC(c1ccc(Cl)c(C(F)F)c1)C1CCC(C(F)(F)F)CC1 (single isomer, unassigned) [Example 37A, (2R)-N-((R or S)-(4-chloro-3-(difluoro-methyl)phenyl)(cis-4-(trifluoromethyl)cyclohexyl)methyl)-2-methyl-3-oxopiperazine-1-carboxamide]"
13,6.84,"C[C@@H]1C(=O)NCCN1C(=O)NC(c1ccc(Cl)c(C(F)F)c1)C1CCC(C(F)(F)F)CC1 (single isomer, unassigned) [Example 37B, (2R)-N-((R or S)-(4-chloro-3-(difluoro-methyl)phenyl)(trans-4-(trifluoromethyl)cyclohexyl)methyl)-2-methyl-3-oxopiperazine-1-carboxamide]"
14,7.57,"C[C@@H]1C(=O)NCCN1C(=O)NC(c1ccc(Cl)c(C(F)F)c1)C1CCC(C(F)(F)F)CC1 (single isomer, unassigned) [Example 37C, (2R)-N-((S or R)-(4-chloro-3-(difluoro-methyl)phenyl)(cis-4-(trifluoromethyl)cyclohexyl)methyl)-2-methyl-3-oxopiperazine-1-carboxamide]"
15,8.70,"C[C@@H]1C(=O)NCCN1C(=O)NC(c1ccc(Cl)c(C(F)F)c1)C1CCC(C(F)(F)F)CC1 (single isomer, unassigned) [Example 37D, (2R)-N-((S or R)-(4-chloro-3-(difluoro-methyl)phenyl)(trans-4-(trifluoromethyl)cyclohexyl)methyl)-2-methyl-3-oxopiperazine-1-carboxamide]"
16,6.84,"C[C@@H]1C(=O)NCCN1C(=O)NC(c1ccc(F)c(Cl)c1)C1CC(OC(F)F)C1 (single isomer, unassigned) [Example 38A, (2R)-N-((R or S)-(3-chloro-4-fluoro-phenyl)-(trans-3-(difluoro-methoxy)cyclobutyl)-methyl)-2-methyl-3-oxopiperazine-1-carboxamide]"
17,6.80,"C[C@@H]1C(=O)NCCN1C(=O)NC(c1ccc(F)c(Cl)c1)C1CC(OC(F)F)C1 (single isomer, unassigned) [Example 38B, (2R)-N-((R or S)-(3-chloro-4-fluorophenyl) (cis-3-(difluoromethoxy)cyclobutyl)methyl)-2-methyl-3-oxopiperazine-1-carboxamide]"
18,7.06,"C[C@@H]1C(=O)NCCN1C(=O)NC(c1ccc(F)c(Cl)c1)C1CC(OC(F)F)C1 (single isomer, unassigned) [Example 38C, (2R)-N-((S or R)-(3-chloro-4-fluorophenyl) (cis-3-(difluoromethoxy)cyclobutyl)methyl)-2-methyl-3-oxopiperazine-1-carboxamide]"
19,7.75,"C[C@@H]1C(=O)NCCN1C(=O)NC(c1ccc(F)c(Cl)c1)C1CC(OC(F)F)C1 (single isomer, unassigned) [Example 38D, (2R)-N-((S or R)-(3-chloro-4-fluorophenyl)-(trans-3-(difluoro-methoxy)cyclobutyl)-methyl)-2-methyl-3-oxopiperazine-1-carboxamide]"
20,6.09,"C[C@@H]1C(=O)NCCN1C(=O)NC(c1ccc(F)c(Cl)c1F)C1CC(OC(F)F)C1 (single isomer, unassigned) [Example 39A, (2R)-N-((R or S)-(3-chloro-2,4-difluoro-phenyl)(trans-3-(difluoromethoxy)-cyclobutyl)methyl)-2-methyl-3-oxopiperazine-1-carboxamide]"
21,6.04,"C[C@@H]1C(=O)NCCN1C(=O)NC(c1ccc(F)c(Cl)c1F)C1CC(OC(F)F)C1 (single isomer, unassigned) [Example 39B, (2R)-N-((R or S)-(3-chloro-2,4-difluoro-phenyl)(cis-3-(difluoro-methoxy)cyclobutyl)-methyl)-2-methyl-3-oxopiperazine-1-carboxamide]"
22,7.31,"C[C@@H]1C(=O)NCCN1C(=O)NC(c1ccc(F)c(Cl)c1F)C1CC(OC(F)F)C1 (single isomer, unassigned) [Example 39C, (2R)-N-((S or R)-(3-chloro-2,4-difluoro-phenyl)(cis-3-(difluoro-methoxy)cyclobutyl)-methyl)-2-methyl-3-oxopiperazine-1-carboxamide]"
23,8.09,"C[C@@H]1C(=O)NCCN1C(=O)NC(c1ccc(F)c(Cl)c1F)C1CC(OC(F)F)C1 (single isomer, unassigned) [Example 39D, (2R)-N-((S or R)-(3-chloro-2,4-difluoro-phenyl)(trans-3-(difluoro-methoxy)cyclobutyL)-methyl)-2-methyl-3-oxopiperazine-1-carboxamide]"
24,4.93,"COC1CC(C(NC(=O)N2CCNC(=O)[C@H]2C)c2ccc(F)c(Cl)c2F)C1 (single isomer, unassigned) [Example 40A, (2R)-N-((R or S)-(3-chloro-2,4-difluoro-phenyl)(trans-3-methoxy-cyclobutyl)methyl)-2-methyl-3-oxopiperazine-1-carboxamide]"
25,4.84,"COC1CC(C(NC(=O)N2CCNC(=O)[C@H]2C)c2ccc(F)c(Cl)c2F)C1 (single isomer, unassigned) [Example 40B, (2R)-N-((R or S)-(3-chloro-2,4-difluoro-phenyl)(cis-3-methoxy-cyclobutyl)methyl)-2-methyl-3-oxopiperazine-1-carboxamide]"
26,6.44,"COC1CC(C(NC(=O)N2CCNC(=O)[C@H]2C)c2ccc(F)c(Cl)c2F)C1 (single isomer, unassigned) [Example 40C, (2R)-N-((S or R)-(3-chloro-2,4-difluoro-phenyl)(cis-3-methoxycyclobutyl)-methyl)-2-methyl-3-oxopiperazine-1-carboxamide]"
27,6.96,"COC1CC(C(NC(=O)N2CCNC(=O)[C@H]2C)c2ccc(F)c(Cl)c2F)C1 (single isomer, unassigned) [Example 40D, (2R)-N-((S or R)-(3-chloro-2,4-difluoro-phenyl)(trans-3-methoxycyclobutyl)-methyl)-2-methyl-3-oxopiperazine-1-carboxamide]"
28,7.50,"C[C@@H]1C(=O)NCCN1C(=O)NC(c1ccc(F)c(Cl)c1F)C1CC12CC2 (single isomer, unassigned) [Example 41A, (2R)-N-((R or S)-(3-chloro-2,4-difluoro-phenyl)((R or S)-spiro[2.2]pentan-1-yl)methyl)-2-methyl-3-oxopiperazine-1-carboxamide]"
29,5.93,"C[C@@H]1C(=O)NCCN1C(=O)NC(c1ccc(F)c(Cl)c1F)C1CC12CC2 (single isomer, unassigned) [Example 41B, (2R)-N-((S or R)-(3-chloro-2,4-difluoro-phenyl)((R or S)-spiro[2.2]pentan-1-yl)methyl)-2-methyl-3-oxopiperazine-1-carboxamide]"
